# Assay results published in PMC6953607 (Nature microbiology, 2019).
# How the values were obtained:
# Mouse MTD = format: in vivo, C57BL/6 mice; conditions: IP, mice monitored 2 weeks
# A. baumannii = experiment: MIC, micro-dilution broth; format: cell-based
# E. cloacae = experiment: MIC, micro-dilution broth; format: cell-based; conditions: E. cloacae ATCC 29893
# K. pneumoniae = experiment: MIC, micro-dilution broth; format: cell-based
# P. aeruginosa PA01 = experiment: MIC, micro-dilution broth; format: cell-based
# E. coli MG1655 = experiment: Accumulation assay, LC-MS/MS; format: cell-based; conditions: E. coli MG1655, 50 μM compound, up to 2 h
# E. coli = experiment: MIC, micro-dilution broth; format: cell-based; conditions: Escherichia coli, E. coli strains with intact outer membranes
# S. aureus ATCC29213 = experiment: MIC, micro-dilution broth; format: cell-based
# [1] = open-label clinical trial ref 26; cited from earlier work
# S. aureus = conditions: cited from earlier work
# [2] = system: E. coli MG1655 harboring FabI variants; experiment: MIC against Debio-1452-NH3-resistant colonies; format: cell-based
structure (smiles),measurement,setting,value
Cc1c(CN(C)C(=O)/C=C/c2cnc3c(c2)CC(CCN)C(=O)N3)oc2ccccc12.Cl (stereo not drawn) [Compound 3],well tolerated single dose,Mouse MTD,100 mg/kg
Cc1c(CN(C)C(=O)/C=C/c2cnc3c(c2)CC(NC(=O)OC(C)(C)C)C(=O)N3)oc2ccccc12 (stereo not drawn) [Compound 8],MIC,A. baumannii; A. baumannii W41979,>32 µg/mL
same,MIC,"A. baumannii; Acinetobacter baumannii, A. baumannii F19521",> 32 µg/mL
same,MIC,E. cloacae,>32 µg/mL
same,MIC,K. pneumoniae; K. pneumoniae S47889,>32 µg/mL
same,MIC,"K. pneumoniae; Klebsiella pneumoniae, BAA1705, K. pneumoniae BAA-1705",> 32 µg/mL
same,MIC,P. aeruginosa PA01,>32 µg/mL
Cc1c(CN(C)C(=O)/C=C/c2cnc3c(c2)CCC(=O)N3)oc2ccccc12 [Debio-1452],MIC,A. baumannii; A. baumannii F19521,>32 µg/mL
same,MIC,A. baumannii; A. baumannii W41979,>32 µg/mL
same,accumulation,E. coli MG1655,no statistically significant accumulation over negative controls
same,MIC,E. coli,> 32 µg/mL
same,MIC,E. cloacae,>32 µg/mL
same,MIC,S. aureus ATCC29213; S. aureus ATCC 29213,0.008 µg/mL
same,fold increase in MIC in the presence of serum,"S. aureus ATCC29213; S. aureus, human serum",8 fold
same,MIC,K. pneumoniae; K. pneumoniae BAA-1705,>32 µg/mL
same,MIC,K. pneumoniae; K. pneumoniae S47889,>32 µg/mL
same,efficacy in patients,[1],marked efficacy
same,MIC,P. aeruginosa PA01,>32 µg/mL
same,efficacy in animal models of S. aureus infections,S. aureus,marked efficacy
Oc1cc(Cl)ccc1Oc1ccc(Cl)cc1Cl [Triclosan],cross-resistance,[2]; A116V mutants resistant to Debio-1452-NH3,no cross-resistance
same,cross-resistance,[2]; G148S mutants resistant to Debio-1452-NH3,minimal cross-resistance
